# Laboratory results published in patent US8329716B2, “Hetaryloxy-substituted phenylamino pyrimidines as Rho kinase inhibitors” (Bayer Intellectual Property GmbH, priority 2004, dated 2012).
# Tested on: isolated saphenous artery of rabbits
# Assay: Vessel-relaxing action in vitro, phenylephrine-induced contractions of isolated saphenous artery rings
# Details: Oryctolagus cuniculus; concentration reducing phenylephrine-induced contraction of rabbit saphenous artery rings by 50% of control
# Protocol: The inhibition of the enzyme is investigated in an in vitro assay with recombinant Rho kinase II. The vessel-relaxing action is determined using phenylephrine-induced contractions of isolated rings of the saphenous artery of rabbits.
# Vessel-Relaxing Action In Vitro
# Individual 3-mm-wide rings of the isolated saphenous artery of rabbits are introduced into 5 ml organ baths with Krebs-Henseleit solution (37° C., gassed with carbogen). The vessel tone is monitored isometrically and registered. Contractions are induced by addition of […] of phenylephrine/ml, which is washed out again after 4 min. After a number of control cycles, the rings are preincubated with the substance to be examined, with the dosage being increased for each further cycle, and the subsequent contraction is compared to the intensity of the last control contraction.
row,IC50 [nM],Structure (SMILES)
1,67,"Cc1c[nH]c2nccc(Oc3c(F)cc(Nc4cc(Cl)nc(N)n4)cc3F)c12 [Example 1, 6-Chloro-N^4-{3,5-difluoro-4-[(3-methyl-1H-pyrrolo[2,3-b]pyridin-4-yl)oxy]phenyl}pyrimidine-2,4-diamine]"
2,19,"N#Cc1c[nH]c2nccc(Oc3ccc(Nc4cc(C(F)(F)F)nc(N)n4)cc3F)c12 [Example 18, 4-(4-{[2-Amino-6-(trifluoromethyl)pyrimidin-4-yl]amino}-2-fluorophenoxy)-1H-pyrrolo[2,3-b]pyridin-3-carbonitrile]"
3,45,"Nc1nc(Nc2ccc(Oc3ccnc4[nH]cc(Cl)c34)c(F)c2)cc(C(F)(F)F)n1 [Example 9, N^4-{4-[(3-Chloro-1H-pyrrolo[2,3-b]pyridin-4-yl)oxy]-3-fluorophenyl}-6-(trifluoromethyl)pyrimidine-2,4-diamine]"
